Data from patent publication US20130331445A1 (Axelar AB, priority 2010, published 2013).

Tests used:
[1] = Solubility in 1% sodium dodecyl sulfate (SDS) by LC-UV; type: physicochemical; details: aqueous with cosolvent or surfactant or cyclodextrin, thermodynamic from solid, 1% SDS, 24 hours rotation
Experimental: The solubility was determined in different media by use of LC-UV chromatography. An excess amount of substance was weighed in vials and 0.5 ml of the medium was added. The substance was rotated in the specific medium at ambient temperature for 24 hours, followed by filtering the supernatant using a hydrophilic PVDF (Millipore Corp.) 0.22 μm filter. The samples were then diluted with a 1:1 mixture of mobile phase A and B (see below) and analyzed using an Xterra™ MS C18, 50×2.1 mm column with UV detection at 288 nm. The mobile phase consisted of acetonitrile, water and trifluoroacetic acid, 5:95:0.1(A) and 99:1:0.1(B).

[2] = system: progressive non-small cell lung cancer (NSCLC); assay: Phase I/II clinical trial in patients with progressive non-small cell lung cancer; type: in vivo
Experimental: The patients were assessed with imaging at the start of the study and thereafter every two months.

## COc1cc(C2c3cc4c(cc3C(O)[C@H]3COC(=O)[C@@H]23)OCO4)cc(OC)c1OC (stereo partly drawn) [picropodophyllin monohydrate]
[1]; ambient temperature
  solubility at 24 h: 210 µg/mL
[1]; corresponds to the mg/ml value
  solubility at 24 h: 489 µM
[2]; NSCLC patients, 390 or 520 mg twice-daily
  patients with partial response according to RECIST criteria: one
[2]; of ten NSCLC patients, 390 or 520 mg twice-daily
  patients still alive at cut-off: five
[2]; of the five NSCLC patients still alive, 390 or 520 mg twice-daily
  patients with no detectable progression at cut-off: two
[2]; ten NSCLC patients, 390 or 520 mg twice-daily monotherapy, at least two weeks, expected median survival less than 20 weeks
  median survival time: 42 weeks
